These results are taken from US9504702B2, “Methods of inhibition of protein fucosylation in vivo using fucose analogs” (Seattle Genetics, Inc., priority 2010, dated 2016).

Series [1] deals with antibody core fucosylation (CHO DG44 cell line producing humanized IgG1 anti-CD70 antibody h1F6). Kind of series: Inhibition of antibody core fucosylation in CHO DG44 cell culture producing h1F6. The series is classed as cell-based. Particulars: day 5, CHO DG44 h1F6; for Inhibition at 50 μM: 50 μM fucose analog; for Inhibition at 1 mM / inhibition at 1000 µM: 1 mM fucose analog. The procedure:
(§1) Fucose analogs have been evaluated for their effect on antibody core fucosylation at concentrations of 50 μM and 1 mM generally as described in Published US Patent Application 2009-0317869. Briefly, the protocol was as follows: A CHO DG44 cell line producing a humanized IgG1 anti-CD70 monoclonal antibody, h1F6 (see International Patent Publication WO 06/113909) was cultured at 7.5×10^5 cells per mL in 2 mLs of CHO culture media at 37°, 5% CO2 and shaking at 100 RPM in a 6 well tissue culture plate. Media was supplemented with insulin like growth factor (IGF), penicillin, streptomycin and either 1 mM or 50 μM of the fucose analog. On day 5 post inoculation, the culture was centrifuged at 13000 RPM for 5 minutes to pellet the cells; antibodies were then purified from supernatant.
(§2) Antibody purification was performed by applying the conditioned media to protein A resin pre-equilibrated with 1× phosphate buffered saline (PBS), pH 7.4. After washing resin with 20 resin bed volumes of 1×PBS, antibodies were eluted with 5 resin bed volumes of Immunopure IgG elution buffer (Pierce Biotechnology, Rockford, Ill.). A 10% volume of 1M Tris pH 8.0 was added to neutralize the eluted fraction.

The subject of series [2] is antibodies (h1F6 produced by CHO DG44 cell line). Kind of series: Incorporation of fucose analogs into antibodies in CHO DG44 cell culture. The series is classed as cell-based. The procedure: as §1, §2
Certain other fucose analogs were tested for their ability to be incorporated into antibodies. These fucose analogs were tested at concentrations of 50 μM and 1 mM using the methodology as described above.

Series [3] concerns LP-1 cells (1,6-fucosylation on the antibody). Nature of the series: Fucosylation status of LP-1-generated IgG by reducing PLRP-MS. The series is classed as cell-based, human. Particulars: 5 days; for PLRP/MS (inhibition or incorporation): in words. The source says:
To further define the results of the AOL dot blot, samples of the IgGs produced by cells treated with the following fucose analogs (that gave moderate to strong decreases in the dot blot AOL signal) were isolated and examined by reducing PLRP-MS to verify the fucosylation status using the MW of the heavy chain: alkynyl fucose peracetate; 5-vinylfucose tetraaceate; 5-methylketofucose tetraacetate; 6-bromofucose tetraacetate; 6-fluorofucose tetraacetate; 5-ethylfucose tetraacetate; 5-epoxyfucose tetraacetate; 6′6-difluorofucose tetraacetate; 6-keto-6-ethyl fucose tetraacetate; and 2-fluorofucose peracetate.
40 mL samples of LP-1 cells (250,000 cells/mL) were treated with 100 μM of a fucose analog for 5 days as described above, and the IgGs were purified as described using protein A resin. The yields were estimated by UV spectroscopy assuming an extinction coefficient of 1.4 AU/(mg/mL). Seven of the ten compounds yielded enough IgG to perform the analysis (use of SGD-2067, SGD-1964, and SGD-2020 yielded <10 μg of IgG, likely due to toxicity of the analogs to the cells). The remaining IgGs were reduced with 10 mM DTT at 37° C. for 15 min and were separated on PLRP followed by MS analysis using a QTOF mass spectrometer. The resulting heavy chain peaks were examined and compared to the IgG generated by untreated cells.
The mass spectrometry signals were evaluated by comparing the peak height of the heavy chain versus heavy chain minus fucose and heavy chain minus fucose plus the mass of the fucose analog (which would arise if there was incorporation of the analog into the antibody carbohydrate).

For series [4], the system named is LP-1, a human multiple myeloma cell line (IgG fucosylation). Kind of series: Fucosylation of LP-1-generated IgG, AOL dot blot. The series is classed as cell-based. Particulars: for % of control fucosylated IgG value / dot blot results (% fucose signal of control) / inhibition of IgG fucosylation in human cells (decrease in AOL signal, dot blot): 100 μM; for % of control fucosylated IgG value / activity at 100 µM: 5 days, AOL dot blot, multiple samples separated by semicolon; for % of control fucosylated IgG value / inhibition of IgG fucosylation in human cells (decrease in AOL signal, dot blot) / activity at 100 µM: LP-1 cells; for dot blot results (% fucose signal of control): LP-1-generated IgG; for activity at 100 µM: Homo sapiens, LP-1, 120 h, read-out: % of control fucosylated IgG value. The procedure:
To further evaluate the activities of different fucose analogs, 48 different fucose analogs and other four glycosylation inhibitors were tested for their ability to affect the fucosylation the LP-1-generated IgG. LP-1 cells (250,000 cells/mL, 3 mL per compound in 6-well plates) were incubated with 100 μM of each fucose analog for 5 days at 37° C. with a humidified atmosphere of 5% CO2 in IgG-depleted tissue culture media (90% RPMI with 10% IgG-depleted heat inactivated FBS). The IgG was isolated as described above using only 0.5 mL of MabSelect™ protein A resin slurry and one spin cup per sample with elution in 400 μL of IgG elution buffer into 25 μL of 9 M Tris buffer, pH 9. The eluates were concentrated to 10-20 μL per sample and 2 μL of each of the concentrated eluates were dotted onto a nitrocellulose membrane and stained with Ponceau S to estimate and adjust the sample loading for AOL staining. From this estimation of total protein in each sample, approximately 0.5 μg of each sample was dotted onto the membrane, air-dried, and stained with Ponceau S. An image of this stained membrane was captured using an Alpha Innotech FlourChem® Q system. The membrane was then blocked with 5% Bovine Serum Albumin (BSA) in Tris Buffered Saline (TBS) for 1 hr, washed with TBST (TBS with […]) 3 times and then incubated with 5 μg/ml biotinylated-AOL for 1 hr. The membrane was washed again with TBST 3 times, followed by Streptavidin-HRP incubation for 30 min and final washes with TBST 3 times.

Where [5] appears, read: concentration not given in the cell (tested at 50 μM and 1 mM).
[6] abbreviates: 120 h, read-out: Inhibition at 50 μM.

What is called Inhibition is how much of the control response was suppressed.

Like-named read-outs stand apart in the source and are kept apart here. Where only a bound is given, the exact number is not on record here.

On to `CC(=O)OC1O[C@@H]([C@]2(C)CO2)[C@@H](OC(C)=O)[C@@H](OC(C)=O)[C@@H]1OC(C)=O` (stereo partly drawn) [5-methyloxiran-arabinose tetraacetate, (3S.4R.5S.6R)-6-((S)-2-methyloxiran-2-yl)-tetrahydro-2H-pyran-2,3,4,5-tetrayl tetraacetate], for which, in series [1], the “Inhibition at 50 μM” value is listed as ~0% and the “Inhibition at 1 mM” value was ~35-40%. In series [2] (setting [5]), the “% Incorporation” value is ~60%.

On to `C=C(C)[C@@H]1OC(OC(C)=O)[C@@H](OC(C)=O)[C@H](OC(C)=O)[C@@H]1OC(C)=O` (stereo partly drawn) [Isopropenyl peracetyl fucose, (3S,4R,5R,6S)-6-(prop-1-en-2-yl)-tetrahydro-2H-pyran-2,3,4,5-tetrayl tetraacetate], for which the “% Incorporation” value in series [2] (50 uM) was >80% (1 mM and 50 uM); in series [2] (1 mM), >80% (1 mM and 50 uM).

With `C=CC1OC(OC(C)=O)C(OC(C)=O)C(OC(C)=O)C1OC(C)=O` (stereo not drawn) [SGD-1922, 5-ethylenylarabinose tetraacetate], in series [1], the “Inhibition at 50 μM” value is ~0% and the “Inhibition at 1 mM” value is ~4%. Moreover, the “PLRP/MS (inhibition or incorporation)” value in series [3] (100 μM) is recorded as “Full incorporator”. Moreover, in series [4], the “% of control fucosylated IgG value” is recorded as 2 % of control and the “dot blot results (% fucose signal of control)” value is recorded as 2 % fucose signal of control.

Regarding 6-allene fucose tetraacetate [SGD-2097], in series [1], the “Inhibition at 50 μM” value is 23% and the “Inhibition at 1 mM” value worked out at 34%. For the same compound, the “% Incorporation” value in series [2] (setting [5]) is given as ~30%. Further, in series [4], the “% of control fucosylated IgG value” is given as 45 % of control.

As to `CC(=O)OC1OC(C(F)F)C(OC(C)=O)C(OC(C)=O)C1OC(C)=O` (stereo not drawn) [SGD-2046, 6′6-difluoro fucose tetraacetate], in series [1], the “Inhibition at 50 μM” value was >80% and the “Inhibition at 1 mM” value is given as >80%. Also, the PLRP/MS fucose inhibition in series [3] (100 μM, heavy chain peak heights) is given as ~33%. For the same compound, the “PLRP/MS (inhibition or incorporation)” value in series [3] (100 μM) is on record as “Partial incorporator”. Also, in series [4], the “% of control fucosylated IgG value” is listed as 2 % of control; the “inhibition of IgG fucosylation in human cells (decrease in AOL signal, dot blot)” value (“inhibition … (decrease in AOL signal, dot blot)” for short) is “potentially strong inhibitors”; the “dot blot results (% fucose signal of control)” value is 2 % fucose signal of control.

Take `CC(=O)OC1OC(CF)[C@@H](OC(C)=O)[C@@H](OC(C)=O)[C@@H]1OC(C)=O` (stereo partly drawn) [SGD-1988, (3S,4R,5S)-6-(fluoromethyl)tetrahydro-2H-pyran-2,3,4,5-tetrayl tetraacetate]: the “% Incorporation” value in series [2] (50 uM) is recorded as >90%. In series [2] (1 mM), the “% Incorporation” value is >90%. Further, the “PLRP/MS (inhibition or incorporation)” value in series [3] (100 μM) was “Full incorporator”. In series [4], the “inhibition … (decrease in AOL signal, dot blot)” value is on record as “potentially strong inhibitors”; the activity at 100 µM stood at 15%; the “dot blot results (% fucose signal of control)” value is recorded as 15 % fucose signal of control.

As for “benzyloxy fucose tetraacetate [SGD-2048]”, in series [1], the “Inhibition at 50 μM” value came to 0% and the “Inhibition at 1 mM” value stood at 75%. The “% of control fucosylated IgG value” in series [4] was 114 % of control.

For `C#CC[C@@H]1OC(OC(C)=O)[C@@H](OC(C)=O)[C@H](OC(C)=O)[C@@H]1OC(C)=O` (stereo partly drawn) [SGD-1987, (3S,4R,5R,6S)-6-(prop-2-ynyl)-tetrahydro-2H-pyran-2,3,4,5-tetrayl tetraacetate], in series [1] (setting [6]), the Inhibition at 50 μM is ~10%. The compound further registered an inhibition at 1000 µM in series [1] (120 h) of 10 to 20%. For the same compound, the “% Incorporation” value in series [2] (1 mM) is reported as 80% (1 mM). For the same compound, in series [4], the activity at 100 µM was 38%.

For `CC(=O)O[C@@H]1[C@H](OC(C)=O)[C@H](C)OC(F)[C@H]1F` (stereo partly drawn) [SGD-2082, 1,2-difuloro fucose diacetate], in series [1], the “Inhibition at 50 μM” value is given as >80% and the “Inhibition at 1 mM” value is given as >80%. The “% of control fucosylated IgG value” in series [4] is 87 % of control.

Take “alkynyl fucose tetra PEG ester [SGD-2057]”: in series [1], the “Inhibition at 50 μM” value is given as >80% and the “Inhibition at 1 mM” value is recorded as >80%. Further, in series [4], the “% of control fucosylated IgG value” is listed as 64 % of control.

On to `CC(=O)OC1OC(CBr)[C@@H](OC(C)=O)[C@@H](OC(C)=O)[C@@H]1OC(C)=O` (stereo partly drawn) [SGD-1969, (3S,4R,5S)-6-(bromomethyl)tetrahydro-2H-pyran-2,3,4,5-tetrayl tetraacetate], for which the Inhibition at 50 μM in series [1] (setting [6]) was 50%. In series [1] (120 h), this compound registered an inhibition at 1000 µM of 80%. Moreover, in series [2] (50 uM), the “% Incorporation” value is ~50%. Further, the “% Incorporation” value in series [2] (1 mM) amounted to 20% at. Also, the “PLRP/MS (inhibition or incorporation)” value in series [3] (100 μM) is listed as “Partial incorporator”. Also, in series [3] (Homo sapiens, 120 h, heavy chain peak heights, read-out: PLRP/MS fucose inhibition), the inhibition at 100 µM was 20%. For the same compound, in series [4], the “inhibition … (decrease in AOL signal, dot blot)” value was “potentially strong inhibitors”; the activity at 100 µM was 1%; the “dot blot results (% fucose signal of control)” value is reported as 1 % fucose signal of control.

With `CC[C@@H]1OC(O)[C@@H](O)[C@H](O)[C@@H]1O` (stereo partly drawn) [5-ethyl fucose, (3S,4R,5S,6S)-6-ethyl-tetrahydro-2H-pyran-2,3,4,5-tetraol], the “% Incorporation” value in series [2] (50 uM) and in series [2] (1 mM) was >80% each time.

Take `CC[C@@H]1OC(OC(C)=O)[C@@H](OC(C)=O)[C@H](OC(C)=O)[C@H]1OC(C)=O` (stereo partly drawn) [SGD-1989, (3S,4R,5S,6S)-6-ethyl-tetrahydro-2H-pyran-2,3,4,5-tetrayl tetraacetate]: the “% Incorporation” value in series [2] (50 uM) is on record as >90%. The “% Incorporation” value in series [2] (1 mM) was >90%. For the same compound, the “PLRP/MS (inhibition or incorporation)” value in series [3] (100 μM) was “Fully incorporated”. Further, in series [4], the “inhibition … (decrease in AOL signal, dot blot)” value is “potentially strong inhibitors”; the activity at 100 µM turned out to be 11%; the “dot blot results (% fucose signal of control)” value is recorded as 11 % fucose signal of control.
